Patent US20260250318A1, “COMPOSITIONS AND METHODS FOR CROSSING THE BLOOD BRAIN BARRIER” (VOYAGER THERAPEUTICS, INC., priority 2022, published 2026)

How the values were obtained:
[1] = system: brains, heart, liver, muscle, and DRG of the NHPs; assay: Maturation of TTM-001 and TTM-002 capsids, NGS enrichment in NHP tissues; format: in vivo; details: relative to AAV9 control; for Fold Enrichment relative to AAV9, Brain (NHP): NGS fold-enrichment of RNA; for Fold Enrichment relative to AAV9, DRG (NHP) / Fold Enrichment relative to AAV9, Heart (NHP) / Fold Enrichment relative to AAV9, Liver DNA (NHP) / Fold Enrichment relative to AAV9, Liver RNA (NHP) / Fold Enrichment relative to AAV9, Muscle (NHP): NGS fold-enrichment
How it was run: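 Variants carry mutations within and flanking the loop IV peptide insert: positions 450–466 were triplet-randomized, while positions 449–466 received low-frequency point mutations. The combined pool went into two NHPs, and each peptide was scored by NGS enrichment ratio against AAV9.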

brain = assay: Matured TTM-001 and TTM-002 variants, NGS enrichment in mouse brain; format: in vivo, mice; details: NGS fold-enrichment, mouse brain, relative to AAV9 control

Sequence	Fold Enrichment relative to AAV9, Brain (NHP) [1] [fold]	Fold Enrichment relative to AAV9, DRG (NHP) [1] [fold]	Fold Enrichment relative to AAV9, Heart (NHP) [1] [fold]	Fold Enrichment relative to AAV9, Liver DNA (NHP) [1] [fold]	Fold Enrichment relative to AAV9, Liver RNA (NHP) [1] [fold]	Fold Enrichment relative to AAV9, Muscle (NHP) [1] [fold]	Fold Enrichment relative to AAV9, Brain (Mouse) (brain) [fold]
KTINGHDSPHKSRLNQPT	92.883	0.000	0.070	1.075	0.904	0.050	5.598
KTINGHDSPHKSRQDQHT	75.595	0.000	0.049	0.045	0.030	0.118	8.540
KTINGHDSPHKSRQSQHT	88.544	0.499	0.046	0.032	0.059	0.000	8.324
KTINGHDSPHKSVQNHLN	196.758	0.000	0.000	0.000	0.000	0.000	14.557
KTINGHDSPHKSVQTHQT	77.309	0.237	0.062	0.116	0.000	0.000	7.519
KTINGHDSPHKSWVRQQT	125.537	0.000	0.033	0.174	0.291	0.000	11.687
KTINGHDSPHKTGQNQPP	77.357	0.000	0.149	0.096	0.000	0.000	8.865
KTINGHDSPHKTGQNQQK	77.562	0.000	1.056	0.000	0.000	0.000	6.379
KTINGHESPHKSAQNRQT	95.531	0.000	0.113	0.082	0.130	0.000	4.815
KTINGHESPHKSGQNIQP	253.840	0.000	0.000	0.000	0.000	0.000	14.042
